Experimental data as given in PubChem BioAssay AID2060616 (Molecular Pharmacology Branch, DTP, NCI, 2025).
Where “and” joins values, the source holds several entries; their conditions need not be identical. Identical values can stand only once.

Tested on: 377384-186-R-J1-PDC complex spheroid viability
Assay: Anticancer human tumor 377384-186-R-J1-PDC patient-derived pancreatic carcinoma cell line growth inhibition [CLK]
Conditions: for viability, T/C: stronger effect = lower value; active = viability on the fitted dose curve at most 10% of control; inactive = the rest
Outline: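 Patient-derived tumor cells grown as complex spheroids with HUVEC endothelial cells and mesenchymal stem cells, treated with drug combinations. Concentrations descend in half-log steps from near clinical Cmax, or from 10 microM if Cmax unknown.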

[1] = curve of first compound, second compound 0.0316 µM
[2] = curve of first compound, second compound 0.1 µM
[3] = curve of first compound, second compound 0.316 µM
[4] = curve of first compound, second compound 1 µM
[5] = curve of first compound, second compound 3.16 µM
[6] = curve of first compound, second compound 10 µM
[7] = second compound 0.0316 µM, first compound 0.0316 µM
[8] = second compound 0.0316 µM, first compound 0.1 µM
[9] = second compound 0.0316 µM, first compound 0.316 µM
[10] = second compound 0.0316 µM, first compound 1 µM
[11] = second compound 0.0316 µM, first compound 3.16 µM
[12] = second compound 0.0316 µM, first compound 10 µM
[13] = second compound 0.1 µM, first compound 0.0316 µM
[14] = second compound 0.1 µM, first compound 0.1 µM
[15] = second compound 0.1 µM, first compound 0.316 µM
[16] = second compound 0.1 µM, first compound 1 µM
[17] = second compound 0.1 µM, first compound 3.16 µM
[18] = second compound 0.1 µM, first compound 10 µM
[19] = second compound 0.316 µM, first compound 0.0316 µM
[20] = second compound 0.316 µM, first compound 0.1 µM
[21] = second compound 0.316 µM, first compound 0.316 µM
[22] = second compound 0.316 µM, first compound 1 µM
[23] = second compound 0.316 µM, first compound 3.16 µM
[24] = second compound 0.316 µM, first compound 10 µM
[25] = second compound 1 µM, first compound 0.0316 µM
[26] = second compound 1 µM, first compound 0.1 µM
[27] = second compound 1 µM, first compound 0.316 µM
[28] = second compound 1 µM, first compound 1 µM
[29] = second compound 1 µM, first compound 3.16 µM
[30] = second compound 1 µM, first compound 10 µM
[31] = second compound 3.16 µM, first compound 0.0316 µM
[32] = second compound 3.16 µM, first compound 0.1 µM
[33] = second compound 3.16 µM, first compound 0.316 µM
[34] = second compound 3.16 µM, first compound 1 µM
[35] = second compound 3.16 µM, first compound 3.16 µM
[36] = second compound 3.16 µM, first compound 10 µM
[37] = second compound 10 µM, first compound 0.0316 µM
[38] = second compound 10 µM, first compound 0.1 µM
[39] = second compound 10 µM, first compound 0.316 µM
[40] = second compound 10 µM, first compound 1 µM
[41] = second compound 10 µM, first compound 3.16 µM
[42] = second compound 10 µM, first compound 10 µM
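Note: spheroids exposed to agents for 7 days before reading.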
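Throughout, for viability, T/C: luminescence signal used as a stand-in for viable cells.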

Nc1ccn(C2OC(CO)C(O)C2(F)F)c(=O)n1 (stereo unspecified) + CN1CCN(c2cc(C(=O)Nc3cc4cc(-c5cnn(C)c5)ccc4cn3)ccn2)CC1
inactive: viability, T/C [19] 11.6%
active: viability, T/C [7] 7.87% | viability, T/C [8] 4.22% | viability, T/C [9] 5.68% | viability, T/C [10] 2.98% | viability, T/C [11] 2.97% | viability, T/C [12] 2.28% | viability, T/C [13] 9.1% | viability, T/C [14] 4.08% | viability, T/C [15] 3.35% | viability, T/C [16] 3.48% | viability, T/C [17] 2.39% | viability, T/C [18] 1.85% | viability, T/C [20] 6.64% | viability, T/C [21] 4.53% | viability, T/C [22] 3.35% | viability, T/C [23] 2.23% | viability, T/C [24] 2.18% | viability, T/C [25] 1.03% | viability, T/C [26] 0.46% | viability, T/C [27] 1.22% | viability, T/C [28] 0.37% | viability, T/C [29] 0.88% | viability, T/C [30] 1.48% | viability, T/C [31] 0.37% | viability, T/C [32] 0.29% | viability, T/C [33] 0.92% | viability, T/C [34] 0.2% | viability, T/C [35] 0.33% | viability, T/C [36] 0.29% | viability, T/C [37] 0.21% | viability, T/C [38] 0.61% | viability, T/C [39] 0.42% | viability, T/C [40] 0.38% | viability, T/C [41] 0.23% | viability, T/C [42] 0.54%
< 31.6 nM: IC50 [1] | IC50 [2] | IC50 [3] | IC50 [4] | IC50 [5] | IC50 [6]

CC(=O)O[C@H]1C(=O)[C@@]2(C)[C@H]([C@H](OC(=O)c3ccccc3)[C@]3(O)C[C@H](OC(=O)[C@H](O)[C@@H](NC(=O)c4ccccc4)c4ccccc4)C(C)=C1C3(C)C)[C@]1(OC(C)=O)CO[C@@H]1C[C@@H]2O
7.92% and 6.8%: viability, T/C (compound 0.0316 µM)
10.5% and 9.32%: viability, T/C (compound 0.316 µM)
9.5% and 7.41%: viability, T/C (compound 0.1 µM)
10.3% and 8.38%: viability, T/C (compound 3.16 µM)
14.3% and 11.1%: viability, T/C (compound 10 µM)
< 31.6 nM: IC50 (curve of compound)
8.91% and 8.31%: viability, T/C (compound 1 µM)

O=c1[nH]cc(F)c(=O)[nH]1 + CN1CCN(c2cc(C(=O)Nc3cc4cc(-c5cnn(C)c5)ccc4cn3)ccn2)CC1
7600 nM: IC50 [1]
inactive: viability, T/C [7] 121% | viability, T/C [8] 122% | viability, T/C [9] 91.6% | viability, T/C [10] 84.5% | viability, T/C [11] 60.1% | viability, T/C [12] 46.5% | viability, T/C [13] 104% | viability, T/C [14] 107% | viability, T/C [15] 92.2% | viability, T/C [16] 94.4% | viability, T/C [17] 65.4% | viability, T/C [18] 56.1% | viability, T/C [19] 25.5% | viability, T/C [20] 28.4% | viability, T/C [21] 22.2% | viability, T/C [22] 29.3% | viability, T/C [23] 28.3% | viability, T/C [24] 21.5%
> 10000 nM: IC50 [2]
< 31.6 nM: IC50 [3] | IC50 [4] | IC50 [5] | IC50 [6]
active: viability, T/C [25] 1.11% | viability, T/C [26] 0.76% | viability, T/C [27] 1.57% | viability, T/C [28] 1.15% | viability, T/C [29] 0.86% | viability, T/C [30] 1.02% | viability, T/C [31] 0.29% | viability, T/C [32] 0.87% | viability, T/C [33] 1.83% | viability, T/C [34] 0.32% | viability, T/C [35] 0.25% | viability, T/C [36] 0.31% | viability, T/C [37] 0.28% | viability, T/C [38] 0.51% | viability, T/C [39] 0.49% | viability, T/C [40] 0.42% | viability, T/C [41] 0.53% | viability, T/C [42] 1.86%
